Results on 13 compounds are retold here after ChEMBL document CHEMBL5150072, “Discovery and Crystallographic Studies of Nonpeptidic Piperazine Derivatives as Covalent SARS-CoV-2 Main Protease Inhibitors” (J Med Chem, 2022).

The source made the active and inactive calls. The calls are words filed in the database; no cut-off is given here. Bounds are passed on as bounds.

For series [1], the system named is SARS-CoV-2. Kind of series: Antiviral activity against SARS-CoV-2 infected in Vero E6 cells. Format: functional, organism-based. As to conditions: Severe acute respiratory syndrome coronavirus 2, Vero C1008.
The target of series [2] is T1, Replicase polyprotein 1ab (Severe acute respiratory syndrome coronavirus 2, UniProt P0DTD1). Nature of the series: Inhibition of SARS-CoV-2 main protease using MCA-AVLQSGFR-Lys(Dnp)-Lys-NH2 as substrate preincubated for 30 mins followed by substrate addition and measured every 10 sec for 10 mins by FRET assay.
For series [3], the system named is SARS-CoV-2. Kind of series: Antiviral activity against SARS-CoV-2 infected in Vero E6 cells preincubated for 1 hr followed by methylcellulose addition and measured after 25 to 26 hrs by EliSpot reader based analysis. Format: functional, organism-based. Conditions: Severe acute respiratory syndrome coronavirus 2, Vero C1008.
The nature of series [4]: Cytotoxicity against african green monkey Vero E6 cells assessed as reduction in cell viability after 26 hrs by MTS assay. The series is classed as toxicity, cell-based, Vero C1008. Conditions: chlorocebus sabaeus.
Series [5] addresses Replicase polyprotein 1ab (Severe acute respiratory syndrome coronavirus 2) (UniProt P0DTD1). Nature of the series: Potency index, ratio of IC50 for MCULE-5948770040 to IC50 for test compound for inhibition of SARS-COV-2 main protease.
Series [6] has the same target. Kind of series: Irreversible inhibition of SARS-CoV-2 main protease assessed as ratio of Kinact/Ki incubated for 60 mins by MS analysis.
Series [7] shares this target. Nature of the series: Covalent inhibition of SARS-CoV-2 main protease assessed as protein-compound adduct formation incubated for 30 mins by MALDI-TOF analysis.
A further series deals with Cathepsin B (Homo sapiens, UniProt P07858). Kind of series: Inhibition of human cathepsin B using Z-Leu-Arg-AMC as substrate by […] assay. Format: toxicity.
A further series concerns the target T2, Cathepsin F (Homo sapiens, UniProt Q9UBX1).
T2 sequence (Q9UBX1 whole entry): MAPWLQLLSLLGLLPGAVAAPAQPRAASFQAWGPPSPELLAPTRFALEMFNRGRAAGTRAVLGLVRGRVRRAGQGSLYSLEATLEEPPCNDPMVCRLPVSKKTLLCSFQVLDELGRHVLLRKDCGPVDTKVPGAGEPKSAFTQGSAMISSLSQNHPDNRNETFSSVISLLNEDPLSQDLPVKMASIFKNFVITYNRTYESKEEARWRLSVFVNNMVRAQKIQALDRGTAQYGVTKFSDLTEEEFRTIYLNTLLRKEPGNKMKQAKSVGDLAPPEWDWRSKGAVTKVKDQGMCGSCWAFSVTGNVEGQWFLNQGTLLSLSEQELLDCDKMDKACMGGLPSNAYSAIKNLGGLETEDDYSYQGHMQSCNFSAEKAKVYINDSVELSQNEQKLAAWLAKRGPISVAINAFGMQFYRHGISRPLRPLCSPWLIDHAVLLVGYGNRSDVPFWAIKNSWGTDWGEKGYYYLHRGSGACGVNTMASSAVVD
Nature of the series: Inhibition of human cathepsin F using Z-Phe-Arg-AMC as substrate by […] assay. Format: toxicity.

Another series deals with T3, Cathepsin K (Homo sapiens, UniProt P43235).
T3 sequence (P43235 whole entry): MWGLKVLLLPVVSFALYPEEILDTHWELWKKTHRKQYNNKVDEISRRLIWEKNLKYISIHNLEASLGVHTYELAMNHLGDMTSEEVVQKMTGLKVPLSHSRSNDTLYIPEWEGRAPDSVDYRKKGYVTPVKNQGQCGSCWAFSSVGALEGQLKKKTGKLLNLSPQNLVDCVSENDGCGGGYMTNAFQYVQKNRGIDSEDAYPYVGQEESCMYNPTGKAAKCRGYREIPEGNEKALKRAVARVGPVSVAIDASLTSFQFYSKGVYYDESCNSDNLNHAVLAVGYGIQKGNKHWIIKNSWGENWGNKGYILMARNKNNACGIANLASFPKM
Nature of the series: Inhibition of human cathepsin K using Ac-LR-AFC as substrate by […] assay. Format: toxicity.

The target in another series is Procathepsin L (Homo sapiens, UniProt P07711). Nature of the series: Inhibition of human cathepsin L using Z-Leu-Arg-AMC as substrate by […] assay. The series is classed as toxicity.
Chain of Procathepsin L (P07711 whole entry): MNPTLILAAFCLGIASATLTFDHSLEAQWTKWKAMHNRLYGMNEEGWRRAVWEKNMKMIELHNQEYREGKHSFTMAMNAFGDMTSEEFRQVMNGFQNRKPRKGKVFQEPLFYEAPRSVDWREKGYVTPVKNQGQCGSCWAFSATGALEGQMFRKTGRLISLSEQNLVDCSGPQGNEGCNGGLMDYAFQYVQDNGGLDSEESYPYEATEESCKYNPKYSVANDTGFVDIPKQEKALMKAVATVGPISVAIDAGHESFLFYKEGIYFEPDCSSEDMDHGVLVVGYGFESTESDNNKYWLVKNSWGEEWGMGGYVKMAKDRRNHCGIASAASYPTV
The target of another series is T4, Caspase-3 (Homo sapiens, UniProt P42574).
T4 sequence (P42574 whole entry): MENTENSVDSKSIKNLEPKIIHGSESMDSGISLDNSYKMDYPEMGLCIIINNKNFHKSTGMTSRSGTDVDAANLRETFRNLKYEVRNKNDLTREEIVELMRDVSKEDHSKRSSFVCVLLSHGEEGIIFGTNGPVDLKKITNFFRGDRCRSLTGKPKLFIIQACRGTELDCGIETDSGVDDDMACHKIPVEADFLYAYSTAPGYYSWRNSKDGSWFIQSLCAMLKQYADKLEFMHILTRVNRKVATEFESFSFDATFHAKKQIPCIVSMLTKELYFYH
Nature of the series: Inhibition of human caspase 3 using Ac-Asp-Glu-Val-Asp-pNA as substrate by […] assay. Format: toxicity.

Series [8] concerns SARS-CoV-2. Kind of series: Antiviral activity against SARS-CoV-2 infected in Vero E6 cells assessed as reduction in virus induced cytopathic effect incubated for 3 days. Format: functional, organism-based. As to conditions: Severe acute respiratory syndrome coronavirus 2, Vero C1008, 72 h. (In general: Protection from cytopathic effect is a common read-out in antiviral testing.)

Series [9] in a line: Cytotoxicity against african green monkey Vero E6 cells. Format: toxicity, cell-based, Vero C1008. Conditions: chlorocebus sabaeus.
The target of series [10] is T1, Replicase polyprotein 1ab. Kind of series: Inhibition of SARS-CoV-2 main protease.
For series [11], the target named is T1, Replicase polyprotein 1ab. Nature of the series: Inhibition of SARS-CoV-2 main protease incubated for 30 mins by FRET based assay.
The subject of series [12] is SARS-CoV-2. Kind of series: Antiviral activity against SARS-CoV-2 infected in VeroE6 cells measured after 24 hrs post infection by plaque assay. Format: functional, organism-based. Conditions: Severe acute respiratory syndrome coronavirus 2, Vero C1008, 24 h.

In the series with SARS-CoV-2 [1], `CC(C)(C)NC(=O)C(c1cccnc1)N(C(=O)c1ccco1)c1ccc(C(C)(C)C)cc1` (stereo unspecified) yielded a half-maximal effective concentration (EC50) above 20 µM.

`O=C(NCc1cccs1)[C@@H]1CN(C(=O)c2cccnc2)CCN1c1ccc(Cl)c(Cl)c1` showed an IC50 in series [2] of 0.4 µM. The EC50 with SARS-CoV-2 [3] was found to be 0.4 µM. Besides, in series [4], the CC50 at 26 h is above 100 µM.

With `O=C(NCc1cccs1)[C@@H]1CN(C(=O)CCl)CCN1c1ccc(Cl)c(Cl)c1`, the IC50 in series [2] was 0.18 µM; against Cathepsin B it was above 30 µM; against Cathepsin F, above 30 µM; at Cathepsin K, above 30 µM; against Procathepsin L, above 30 µM; on Caspase-3, above 30 µM. In addition, in series [5], the Ratio IC50 turned out to be 28. This compound displayed an EC50 in the series with SARS-CoV-2 [3] of 2.64 µM. Moreover, the CC50 at 26 h in series [4] was 12.5 µM. The Ratio in [6] turned out to be 21500 M⁻¹ s⁻¹. For the same compound, the inhibition entry in series [7] was “Active”.

Consider `O=C(NCc1cccs1)[C@@H]1CN(C(=O)CBr)CCN1c1ccc(Cl)c(Cl)c1`, for which the IC50 in series [2] turned out to be 0.31 µM. Also, in series [5], the Ratio IC50 was found to be 16. This compound also had an EC50 with SARS-CoV-2 [3] of 4.24 µM. In series [4], the CC50 at 26 h stood at 6.5 µM.

With `COc1cccc2[nH]c(C(=O)N[C@@H](CC(C)C)C(=O)N[C@@H](C[C@@H]3CCNC3=O)C(=O)CO)cc12` [PF-00835231], the EC50 in the series on SARS-CoV-2 [8] was 0.23 µM.

`O=c1c2ccccc2[se]n1-c1ccccc1` [EBSELEN]: the CC50 in series [9] was above 20 µM.

In turn, `[2H][C@](C(=O)N[C@@H](C)c1ccc(F)cc1)(c1cccnc1)N(C(=O)C(C)=O)c1ccc2c(c1)oc1ccccc12` yielded an IC50 in series [10] of 0.008 µM. In the series with SARS-CoV-2 [1], this compound came in with a concentration giving a half-maximal response (EC50) of 0.9 µM.

`C[C@H](NC(=O)[C@@H](c1cccnc1)N(C(=O)C(Cl)Cl)c1ccc(-c2ccccc2)cc1)c1ccccc1`: the EC50 in the series on SARS-CoV-2 [1] worked out at 0.67 µM. The midpoint of inhibition in series [11], the IC50, lay at 0.67 µM. Moreover, the CC50 in series [9] amounted to 33.1 µM.

`CC(C)(C)[C@H](NC(=O)C(F)(F)F)C(=O)N1C[C@H]2[C@@H]([C@H]1C(=O)N[C@H](C#N)C[C@@H]1CCNC1=O)C2(C)C`: the CC50 at 26 h in series [4] was above 100 µM.

The compound `C#CC(=O)N1CCN(c2ccc(Cl)c(Cl)c2)[C@H](C(=O)NCc2cccs2)C1` displayed an IC50 in series [2] of 2.8 µM. For the same compound, the EC50 with SARS-CoV-2 [3] amounted to 1.37 µM. Also, the CC50 at 26 h in series [4] turned out to be 11.9 µM.

`O=C(NCc1cccs1)[C@@H]1CN(C(=O)C(F)(F)S(=O)(=O)F)CCN1c1ccc(Cl)c(Cl)c1` yielded an IC50 in [2] of 1.6 µM. In the series with SARS-CoV-2 [3], this compound yielded an EC50 of 183 µM. In addition, the CC50 at 26 h in series [4] was above 100 µM.

In the series with SARS-CoV-2 [12], `O=C[C@H](C[C@@H]1CCNC1=O)NC(=O)[C@H](CC1CCCCC1)NC(=O)c1cc2ccccc2[nH]1` registered an EC50 of 0.42 µM.

Regarding `CCC(CC)COC(=O)[C@H](C)N[P@](=O)(OC[C@H]1O[C@@](C#N)(c2ccc3c(N)ncnn23)[C@H](O)[C@@H]1O)Oc1ccccc1`, in the series on SARS-CoV-2 [3], the EC50 is 2.27 µM. Further, the CC50 at 26 h in series [4] was above 100 µM.

A word on the EC50: it is the concentration at which the effect is half-maximal. A word on the IC50: it is the concentration at which inhibition is half-maximal. Broadly, the CC50 is the concentration that lowers cell viability or growth by half.
